Literature values as cited in patent US8636985B2, “Functional formulation in chewing gum” (priority 2010, dated 2014).

Details: several experimental models

In the case of CC1=C(CO)C(=O)O[C@@H]([C@@H](C)[C@H]2CC[C@H]3[C@@H]4C[C@H]5O[C@]56[C@@H](O)C=CC(=O)[C@]6(C)[C@H]4CC[C@]23C)C1 [Withaferin A], the “anti-inflammatory and antiarthritic properties” value is listed as “anti-inflammatory and antiarthritic properties”.
